What was measured:
[1] = Metabolic stability in human liver microsomes by high-throughput screening based assay; assay type: ADME, microsome; details: read-out: Stability
[2] = Metabolic stability in mouse liver microsomes by high-throughput screening based assay; assay type: ADME, microsome; details: read-out: Stability
[3] = Metabolic stability in rat liver microsomes by high-throughput screening based assay; assay type: ADME, microsome; details: read-out: Stability
[4] = Effective permeability of the compound by PAMPA; assay type: ADME; details: read-out: Peff
[5] = Volume of distribution at steady state in ICR mouse at 2 mg/kg, iv; assay type: ADME, organism-based; details: in vivo, read-out: Vdss
[6] = Half life in ICR mouse at 2 mg/kg, iv; assay type: ADME, organism-based; details: in vivo
[7] = Plasma clearance in ICR mouse at 2 mg/kg, iv; assay type: ADME, organism-based
[8] = Tmax in ICR mouse at […], po; assay type: ADME, organism-based; details: in vivo
[9] = Cmax in ICR mouse at 2 mg/kg, iv; assay type: ADME, organism-based; design: dose 2 mg/kg, route intravenous; details: in vivo
[10] = Oral bioavailability in ICR mouse at […]; assay type: ADME, organism-based; details: in vivo
[11] = AUC (0 to 24 hrs) in ICR mouse at 2 mg/kg, iv; assay type: ADME, organism-based; design: time < 24 hr, dose 2 mg/kg, route intravenous; details: ICR, in vivo
[12] = AUC (0 to 24 hrs) in ICR mouse at […], po; assay type: ADME, organism-based; design: time < 24 hr, dose 7.9 mg/kg, route oral; details: in vivo
[13] = Half life in ICR mouse at […], po; assay type: ADME, organism-based; details: in vivo
[14] = Cmax in ICR mouse at […], po; assay type: ADME, organism-based; design: dose 7.9 mg/kg, route oral; details: in vivo
[15] = AUC (0 to 24 hrs) in ICR mouse at 10 mg/kg, po; assay type: ADME, organism-based; design: time < 24 hr, dose 10 mg/kg, route oral; details: in vivo
[16] = Oral bioavailability in ICR mouse at 10 mg/kg; assay type: ADME, organism-based; details: in vivo
[17] = Half life in ICR mouse at 10 mg/kg, po; assay type: ADME, organism-based; details: in vivo
[18] = Tmax in ICR mouse at 10 mg/kg, po; assay type: ADME, organism-based; details: in vivo
[19] = Cmax in ICR mouse at 10 mg/kg, po; assay type: ADME, organism-based; design: dose 10 mg/kg, route oral; details: in vivo
Mus musculus [20] = assay: AUC (0 to 24 hrs) in ICR mouse at 1 mg/kg, iv; assay type: ADME, organism-based; design: time < 24 hr, dose 1 mg/kg, route intravenous; details: in vivo
[21] = Tmax in ICR mouse at 12.2 mg/kg, po; assay type: ADME, organism-based; details: in vivo
Mus musculus [22] = assay: Oral bioavailability in ICR mouse at 12.2 mg/kg; assay type: ADME, organism-based; details: in vivo
[23] = Volume of distribution at steady state in ICR mouse at 1 mg/kg, iv; assay type: ADME, organism-based; details: in vivo, read-out: Vdss
Mus musculus [24] = assay: AUC (0 to 24 hrs) in ICR mouse at 12.2 mg/kg, po; assay type: ADME, organism-based; design: dose 12.2 mg/kg, time < 24 hr, route oral; details: in vivo
[25] = Cmax in ICR mouse at 1 mg/kg, iv; assay type: ADME, organism-based; design: dose 1 mg/kg, route intravenous; details: in vivo
[26] = Cmax in ICR mouse at 12.2 mg/kg, po; assay type: ADME, organism-based; design: dose 12.2 mg/kg, route oral; details: in vivo

Compound | CLhep predicted [1] [mL/min/kg] | CLhep predicted [2] [mL/min/kg] | CLhep predicted [3] [mL/min/kg] | Papp [4] [×10⁻⁶ cm/s] | other results
CS(=O)(=O)c1nn(Cc2nc3cc(Cl)ccc3n2CCCCC(F)(F)F)c2cnccc12 | 4.57 | 22.7 | 6.15 | 0.95 | –
CS(=O)(=O)CCn1c(Cn2cc(S(C)(=O)=O)c3ccccc32)nc2ccccc21 | 7.33 to 9 | 19.7 | – | 4.87 | –
CS(=O)(=O)CCCc1c(CN2C(=O)C3(CC3)c3ccncc32)nc2cc(Cl)ccn12 | 11.7 | 83.3 | – | – | –
CC(C)(O)CCn1c(Cn2nc(S(C)(=O)=O)c3ccncc32)nc2cc(Cl)ccc21 | 2.95 | 26.6 | 8.45 | 2.39 | Vd [5]: 1.93 L/kg; half-life [6]: 28.2 min; clearance [7]: 61.1 mL/min/kg; Tmax [8]: 15 min; Cmax [9]: 894 ng/mL; bioavailability [10]: 32.5%; AUC(0-t) at 24 h [11]: 701 ng·h/mL; AUC(0-t) at 24 h [12]: 546 ng·h/mL; half-life [13]: 119 min; Cmax [14]: 324 ng/mL
CS(=O)(=O)c1nn(Cc2nc3cc(Cl)ccc3n2CCOCCO)c2cnccc12 | 1.91 | 14.2 | 13.7 | 3.12 | –
CS(=O)(=O)CCCn1c(Cn2nc(S(C)(=O)=O)c3ccncc32)nc2cc(Cl)ccc21 | 11.3 | 75.5 | 39.9 | 1.55 | –
CN(C)S(=O)(=O)c1cn(Cc2nc3cc(Cl)ccc3n2CCCS(C)(=O)=O)c2ccccc12 | 21.9 | 81.7 | 56.2 | 1.55 | –
CC(C)(O)CCCn1c(Cn2nc(S(C)(=O)=O)c3ccncc32)nc2cc(Cl)ccc21 | 5.17 | 20.7 | 2.96 | 2.57 | Vd [5]: 1.09 L/kg; half-life [6]: 14.5 min; clearance [7]: 60.4 mL/min/kg; AUC(0-t) at 24 h [15]: 809 ng·h/mL; Cmax [9]: 1300 ng/mL; AUC(0-t) at 24 h [11]: 552 ng·h/mL; bioavailability [16]: 29.3%; half-life [17]: 307 min; Tmax [18]: 15 min; Cmax [19]: 340 ng/mL
CS(=O)(=O)c1nn(Cc2nc3cc(Cl)ccc3n2CC2COC2)c2cnccc12 | 3.9 | 9 | 19.8 | 3.22 | AUC (Mus musculus [20]): 2870 ng·h/mL; Tmax [21]: 30 min; F (Mus musculus [22]): 23.8%; Vd [23]: 0.88 L/kg; AUC (Mus musculus [24]): 989 ng·h/mL; Cmax [25]: 1270 ng/mL; Cmax [26]: 972 ng/mL

— ChEMBL document CHEMBL4130376, “Discovery of methylsulfonyl indazoles as potent and orally active respiratory syncytial Virus(RSV) fusion inhibitors” (Eur J Med Chem, 2017)
